Source: the kinase profiling compilation of Christmann-Franck et al. (2016)

Legend:
Experiment in all cases: KINOMEscan competition binding
Conditions in all cases: compound 10.0 µM
ZAP70 (human) = ZAP70 (human) (UniProt P43403)
EPHA6 (human) = EPHA6 (human) (UniProt Q9UF33)
IRAK3 (human) = IRAK3 (human) (UniProt Q9Y616)
CDK19 (human) = CDK19 (human) (UniProt Q9BWU1)
MAPK6 (human) = MAPK6 (human) (UniProt Q16659)
MAP3K4 (human) = MAP3K4 (human) (UniProt Q9Y6R4)
RPS6KA4 KD1 (human) = RPS6KA4 KD1 (human) (UniProt O75676)
PTK6 (human) = PTK6 (human) (UniProt Q13882)
HCK (human) = HCK (human) (UniProt P08631)
TTK (human) = TTK (human) (UniProt P33981)
TTK (human), sequence (P33981 whole entry, looked up): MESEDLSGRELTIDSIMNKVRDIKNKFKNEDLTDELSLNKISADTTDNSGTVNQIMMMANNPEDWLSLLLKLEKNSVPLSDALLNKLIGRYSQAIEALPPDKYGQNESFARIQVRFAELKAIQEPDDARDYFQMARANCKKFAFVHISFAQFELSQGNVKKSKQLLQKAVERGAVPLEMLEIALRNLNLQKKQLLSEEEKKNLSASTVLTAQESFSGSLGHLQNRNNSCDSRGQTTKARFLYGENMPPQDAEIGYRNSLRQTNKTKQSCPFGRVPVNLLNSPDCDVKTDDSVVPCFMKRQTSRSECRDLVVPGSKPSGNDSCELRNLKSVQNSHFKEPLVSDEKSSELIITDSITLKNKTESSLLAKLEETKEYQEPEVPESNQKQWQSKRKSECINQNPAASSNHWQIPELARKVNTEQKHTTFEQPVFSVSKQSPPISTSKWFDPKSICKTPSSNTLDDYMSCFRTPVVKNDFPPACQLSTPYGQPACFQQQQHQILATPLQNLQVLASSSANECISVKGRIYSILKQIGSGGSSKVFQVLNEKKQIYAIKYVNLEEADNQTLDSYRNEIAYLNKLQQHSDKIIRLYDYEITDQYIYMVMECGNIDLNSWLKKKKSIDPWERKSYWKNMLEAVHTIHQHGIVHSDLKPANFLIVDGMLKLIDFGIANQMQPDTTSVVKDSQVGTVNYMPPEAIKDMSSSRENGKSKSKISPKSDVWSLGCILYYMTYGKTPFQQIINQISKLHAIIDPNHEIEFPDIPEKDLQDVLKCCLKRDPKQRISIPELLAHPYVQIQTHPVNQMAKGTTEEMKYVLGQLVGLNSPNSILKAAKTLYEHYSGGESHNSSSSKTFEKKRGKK

TLK1 (human) = TLK1 (human) (UniProt Q9UKI8)
TLK1 (human), sequence (Q9UKI8 whole entry, looked up): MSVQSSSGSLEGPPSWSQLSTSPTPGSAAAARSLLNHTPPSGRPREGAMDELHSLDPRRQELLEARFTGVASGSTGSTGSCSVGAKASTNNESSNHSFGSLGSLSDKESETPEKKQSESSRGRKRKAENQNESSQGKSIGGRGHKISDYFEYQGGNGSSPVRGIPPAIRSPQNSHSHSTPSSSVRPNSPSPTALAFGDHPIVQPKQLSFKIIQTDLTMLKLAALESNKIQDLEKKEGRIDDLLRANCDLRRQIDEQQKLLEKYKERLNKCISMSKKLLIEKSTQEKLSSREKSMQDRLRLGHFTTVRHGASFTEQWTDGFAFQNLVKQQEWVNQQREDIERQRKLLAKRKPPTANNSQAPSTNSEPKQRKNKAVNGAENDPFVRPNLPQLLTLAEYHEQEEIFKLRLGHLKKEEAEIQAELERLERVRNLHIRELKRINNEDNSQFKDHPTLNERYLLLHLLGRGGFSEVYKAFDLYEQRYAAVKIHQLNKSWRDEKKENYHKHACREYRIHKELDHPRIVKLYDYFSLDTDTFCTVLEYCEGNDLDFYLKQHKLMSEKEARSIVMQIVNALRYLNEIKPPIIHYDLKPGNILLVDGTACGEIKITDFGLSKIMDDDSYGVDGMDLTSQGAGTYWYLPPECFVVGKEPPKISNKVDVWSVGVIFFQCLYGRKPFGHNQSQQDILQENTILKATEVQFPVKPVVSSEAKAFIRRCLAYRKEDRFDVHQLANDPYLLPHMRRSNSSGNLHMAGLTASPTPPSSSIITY

EPHB4 (human) = EPHB4 (human) (UniProt P54760)
ACVR2A (human) = ACVR2A (human) (UniProt P27037)
AAK1 (human) = AAK1 (human) (UniProt Q2M2I8)
EPHB2 (human) = EPHB2 (human) (UniProt P29323)
EPHB2 (human), sequence (P29323 whole entry, looked up): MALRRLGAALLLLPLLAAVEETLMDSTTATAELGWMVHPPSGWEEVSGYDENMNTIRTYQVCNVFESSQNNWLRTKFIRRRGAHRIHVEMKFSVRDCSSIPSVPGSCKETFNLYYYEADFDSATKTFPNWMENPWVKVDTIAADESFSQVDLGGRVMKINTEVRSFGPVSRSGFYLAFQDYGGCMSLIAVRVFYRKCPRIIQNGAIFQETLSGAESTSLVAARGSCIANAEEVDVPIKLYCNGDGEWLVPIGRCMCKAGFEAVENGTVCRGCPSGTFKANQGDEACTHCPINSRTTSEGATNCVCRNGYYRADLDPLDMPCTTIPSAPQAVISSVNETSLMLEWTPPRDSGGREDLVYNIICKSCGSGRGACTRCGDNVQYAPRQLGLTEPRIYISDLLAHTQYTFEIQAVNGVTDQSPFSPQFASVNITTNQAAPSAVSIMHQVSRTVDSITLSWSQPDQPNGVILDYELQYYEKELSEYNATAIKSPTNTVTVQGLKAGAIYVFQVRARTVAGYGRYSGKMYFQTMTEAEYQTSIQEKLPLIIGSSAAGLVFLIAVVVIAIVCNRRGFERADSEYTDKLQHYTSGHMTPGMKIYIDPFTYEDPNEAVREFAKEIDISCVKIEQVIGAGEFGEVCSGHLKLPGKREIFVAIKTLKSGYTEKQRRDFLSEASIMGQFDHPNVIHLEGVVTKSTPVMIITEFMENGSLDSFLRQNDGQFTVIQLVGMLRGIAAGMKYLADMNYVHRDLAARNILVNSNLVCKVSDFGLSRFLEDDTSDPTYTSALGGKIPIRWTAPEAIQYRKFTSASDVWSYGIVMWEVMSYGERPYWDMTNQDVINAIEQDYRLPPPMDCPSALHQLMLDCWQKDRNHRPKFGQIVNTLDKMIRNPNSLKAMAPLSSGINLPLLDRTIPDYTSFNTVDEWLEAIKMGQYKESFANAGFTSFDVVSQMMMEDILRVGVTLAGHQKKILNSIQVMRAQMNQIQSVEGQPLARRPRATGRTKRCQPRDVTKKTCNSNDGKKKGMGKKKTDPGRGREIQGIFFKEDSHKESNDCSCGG

EPHA3 (human) = EPHA3 (human) (UniProt P29320)
PTK2B (human) = PTK2B (human) (UniProt Q14289)
IKBKE (human) = IKBKE (human) (UniProt Q14164)
ACVR1 (human) = ACVR1 (human) (UniProt Q04771)
MAPK13 (human) = MAPK13 (human) (UniProt O15264)
MAPK13 (human), sequence (O15264 whole entry, looked up): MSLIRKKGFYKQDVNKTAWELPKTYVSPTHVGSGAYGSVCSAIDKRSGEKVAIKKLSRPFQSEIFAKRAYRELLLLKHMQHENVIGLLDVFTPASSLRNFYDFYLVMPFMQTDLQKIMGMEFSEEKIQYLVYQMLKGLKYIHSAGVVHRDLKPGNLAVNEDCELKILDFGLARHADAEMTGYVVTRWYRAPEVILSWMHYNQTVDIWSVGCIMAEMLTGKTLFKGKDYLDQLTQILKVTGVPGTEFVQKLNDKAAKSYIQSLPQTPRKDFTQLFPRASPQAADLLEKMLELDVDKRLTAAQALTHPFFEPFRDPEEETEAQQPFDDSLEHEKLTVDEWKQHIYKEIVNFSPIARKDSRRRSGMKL

CAMK2D (human) = CAMK2D (human) (UniProt Q13557)
CAMK2D (human), sequence (Q13557 whole entry, looked up): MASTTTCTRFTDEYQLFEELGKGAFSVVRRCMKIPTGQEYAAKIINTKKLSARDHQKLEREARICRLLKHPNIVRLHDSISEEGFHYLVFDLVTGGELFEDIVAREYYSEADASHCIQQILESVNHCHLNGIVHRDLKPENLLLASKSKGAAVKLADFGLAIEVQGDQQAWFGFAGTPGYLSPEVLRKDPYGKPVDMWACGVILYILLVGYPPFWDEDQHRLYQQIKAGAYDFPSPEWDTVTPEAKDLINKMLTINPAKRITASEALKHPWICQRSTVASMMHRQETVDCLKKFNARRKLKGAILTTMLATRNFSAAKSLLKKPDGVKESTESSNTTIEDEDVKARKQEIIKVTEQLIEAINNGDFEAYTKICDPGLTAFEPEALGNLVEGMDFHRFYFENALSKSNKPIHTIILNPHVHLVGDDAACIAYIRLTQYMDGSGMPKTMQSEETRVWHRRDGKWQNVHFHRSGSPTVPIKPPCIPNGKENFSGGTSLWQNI

PTK2 (human) = PTK2 (human) (UniProt Q05397)
EPHA2 (human) = EPHA2 (human) (UniProt P29317)
RIPK1 (human) = RIPK1 (human) (UniProt Q13546)
TGFBR2 (human) = TGFBR2 (human) (UniProt P37173)
RPS6KA2 KD2 (human) = RPS6KA2 KD2 (human) (UniProt Q15349)
RPS6KA2 KD2 (human), sequence (Q15349 whole entry, looked up): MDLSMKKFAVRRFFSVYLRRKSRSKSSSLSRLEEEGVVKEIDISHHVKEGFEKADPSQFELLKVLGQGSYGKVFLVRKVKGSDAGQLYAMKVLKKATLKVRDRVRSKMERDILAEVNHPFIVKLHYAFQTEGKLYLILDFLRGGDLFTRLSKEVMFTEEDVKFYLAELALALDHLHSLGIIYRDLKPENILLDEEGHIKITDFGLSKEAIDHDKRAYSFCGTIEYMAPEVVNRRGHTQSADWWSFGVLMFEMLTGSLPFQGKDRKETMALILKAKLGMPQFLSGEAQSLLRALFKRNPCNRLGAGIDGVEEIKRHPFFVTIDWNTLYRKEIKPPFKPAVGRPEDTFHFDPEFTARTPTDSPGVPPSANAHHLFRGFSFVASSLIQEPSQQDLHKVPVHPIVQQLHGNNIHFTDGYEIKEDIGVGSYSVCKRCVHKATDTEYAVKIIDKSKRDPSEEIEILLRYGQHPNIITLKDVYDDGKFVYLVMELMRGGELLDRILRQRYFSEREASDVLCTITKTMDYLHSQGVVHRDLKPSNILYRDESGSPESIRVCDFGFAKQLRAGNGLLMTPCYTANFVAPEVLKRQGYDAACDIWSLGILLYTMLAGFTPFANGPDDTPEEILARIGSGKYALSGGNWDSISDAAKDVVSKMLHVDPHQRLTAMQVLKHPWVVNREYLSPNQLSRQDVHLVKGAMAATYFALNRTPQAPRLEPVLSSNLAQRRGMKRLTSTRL

CAMK2G (human) = CAMK2G (human) (UniProt Q13555)
PRKCE (human) = PRKCE (human) (UniProt Q02156)
PAK1 (human) = PAK1 (human) (UniProt Q13153)
DDR2 (human) = DDR2 (human) (UniProt Q16832)
ULK1 (human) = ULK1 (human) (UniProt O75385)
MAP3K7 (human) = MAP3K7 (human) (UniProt O43318)
RIOK1 (human) = RIOK1 (human) (UniProt Q9BRS2)
CSF1R (human) = CSF1R (human) (UniProt P07333)
MAP3K5 (human) = MAP3K5 (human) (UniProt Q99683)
MAPK15 (human) = MAPK15 (human) (UniProt Q8TD08)
MAPK15 (human), sequence (Q8TD08 whole entry, looked up): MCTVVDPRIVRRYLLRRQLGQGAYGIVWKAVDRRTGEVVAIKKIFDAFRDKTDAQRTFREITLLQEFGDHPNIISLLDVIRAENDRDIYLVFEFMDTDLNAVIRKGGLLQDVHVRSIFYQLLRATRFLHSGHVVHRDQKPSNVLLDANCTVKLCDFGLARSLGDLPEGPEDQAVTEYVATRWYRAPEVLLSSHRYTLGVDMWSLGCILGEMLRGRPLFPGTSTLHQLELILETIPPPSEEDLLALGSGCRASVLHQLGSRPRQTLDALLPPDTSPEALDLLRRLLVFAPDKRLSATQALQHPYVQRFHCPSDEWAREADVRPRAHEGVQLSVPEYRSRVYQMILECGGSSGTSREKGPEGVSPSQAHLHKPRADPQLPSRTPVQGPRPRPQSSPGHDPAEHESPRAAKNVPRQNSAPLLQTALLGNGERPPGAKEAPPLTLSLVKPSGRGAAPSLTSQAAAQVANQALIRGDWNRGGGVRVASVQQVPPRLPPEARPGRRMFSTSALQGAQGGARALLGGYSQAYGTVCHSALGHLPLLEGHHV

RPS6KA4 KD2 (human) = RPS6KA4 KD2 (human) (UniProt O75676)
STK3 (human) = STK3 (human) (UniProt Q13188)
MAPK12 (human) = MAPK12 (human) (UniProt P53778)
EPHA7 (human) = EPHA7 (human) (UniProt Q15375)

Compound: Cc1cc([C@@H](C)Nc2ccccc2C(=O)O)c2nc(N3CCOCC3)cc(=O)n2c1
- kinase still bound, per cent of control (ZAP70 (human)): 100%
- kinase still bound, per cent of control (EPHA6 (human)): 100%
- kinase still bound, per cent of control (IRAK3 (human)): 58%
- kinase still bound, per cent of control (CDK19 (human)): 91%
- kinase still bound, per cent of control (MAPK6 (human)): 100%
- kinase still bound, per cent of control (MAP3K4 (human)): 100%
- kinase still bound, per cent of control (RPS6KA4 KD1 (human)): 94%
- kinase still bound, per cent of control (PTK6 (human)): 75%
- kinase still bound, per cent of control (HCK (human)): 100%
- kinase still bound, per cent of control (TTK (human)): 100%
- kinase still bound, per cent of control (TLK1 (human)): 96%
- kinase still bound, per cent of control (EPHB4 (human)): 96%
- kinase still bound, per cent of control (ACVR2A (human)): 94%
- kinase still bound, per cent of control (AAK1 (human)): 95%
- kinase still bound, per cent of control (EPHB2 (human)): 100%
- kinase still bound, per cent of control (EPHA3 (human)): 79%
- kinase still bound, per cent of control (PTK2B (human)): 100%
- kinase still bound, per cent of control (IKBKE (human)): 85%
- kinase still bound, per cent of control (ACVR1 (human)): 98%
- kinase still bound, per cent of control (MAPK13 (human)): 87%
- kinase still bound, per cent of control (CAMK2D (human)): 95%
- kinase still bound, per cent of control (PTK2 (human)): 88%
- kinase still bound, per cent of control (EPHA2 (human)): 70%
- kinase still bound, per cent of control (RIPK1 (human)): 100%
- kinase still bound, per cent of control (TGFBR2 (human)): 95%
- kinase still bound, per cent of control (RPS6KA2 KD2 (human)): 98%
- kinase still bound, per cent of control (CAMK2G (human)): 98%
- kinase still bound, per cent of control (PRKCE (human)): 100%
- kinase still bound, per cent of control (PAK1 (human)): 100%
- kinase still bound, per cent of control (DDR2 (human)): 83%
- kinase still bound, per cent of control (ULK1 (human)): 91%
- kinase still bound, per cent of control (MAP3K7 (human)): 89%
- kinase still bound, per cent of control (RIOK1 (human)): 100%
- kinase still bound, per cent of control (CSF1R (human)): 94%
- kinase still bound, per cent of control (MAP3K5 (human)): 100%
- kinase still bound, per cent of control (MAPK15 (human)): 100%
- kinase still bound, per cent of control (RPS6KA4 KD2 (human)): 100%
- kinase still bound, per cent of control (STK3 (human)): 66%
- kinase still bound, per cent of control (MAPK12 (human)): 94%
- kinase still bound, per cent of control (EPHA7 (human)): 89%

Compound: Cc1ccc(NC(=O)c2cccc(C(C)(C)C#N)c2)cc1Nc1ccc2ncn(C)c(=O)c2c1
- kinase still bound, per cent of control (ZAP70 (human)): 100%
- kinase still bound, per cent of control (EPHA6 (human)): 0%
- kinase still bound, per cent of control (IRAK3 (human)): 95%
- kinase still bound, per cent of control (CDK19 (human)): 35%
- kinase still bound, per cent of control (MAPK6 (human)): 100%
- kinase still bound, per cent of control (MAP3K4 (human)): 100%
- kinase still bound, per cent of control (RPS6KA4 KD1 (human)): 100%
- kinase still bound, per cent of control (PTK6 (human)): 94%
- kinase still bound, per cent of control (HCK (human)): 3.1%
- kinase still bound, per cent of control (TTK (human)): 95%
- kinase still bound, per cent of control (TLK1 (human)): 100%
- kinase still bound, per cent of control (EPHB4 (human)): 0.25%
- kinase still bound, per cent of control (ACVR2A (human)): 100%
- kinase still bound, per cent of control (AAK1 (human)): 100%
- kinase still bound, per cent of control (EPHB2 (human)): 0%
- kinase still bound, per cent of control (EPHA3 (human)): 5.1%
- kinase still bound, per cent of control (PTK2B (human)): 100%
- kinase still bound, per cent of control (IKBKE (human)): 100%
- kinase still bound, per cent of control (ACVR1 (human)): 100%
- kinase still bound, per cent of control (MAPK13 (human)): 9.6%
- kinase still bound, per cent of control (CAMK2D (human)): 100%
- kinase still bound, per cent of control (PTK2 (human)): 100%
- kinase still bound, per cent of control (EPHA2 (human)): 3.2%
- kinase still bound, per cent of control (RIPK1 (human)): 83%
- kinase still bound, per cent of control (TGFBR2 (human)): 94%
- kinase still bound, per cent of control (RPS6KA2 KD2 (human)): 84%
- kinase still bound, per cent of control (CAMK2G (human)): 100%
- kinase still bound, per cent of control (PRKCE (human)): 100%
- kinase still bound, per cent of control (PAK1 (human)): 100%
- kinase still bound, per cent of control (DDR2 (human)): 21%
- kinase still bound, per cent of control (ULK1 (human)): 94%
- kinase still bound, per cent of control (MAP3K7 (human)): 17%
- kinase still bound, per cent of control (RIOK1 (human)): 100%
- kinase still bound, per cent of control (CSF1R (human)): 0.1%
- kinase still bound, per cent of control (MAP3K5 (human)): 100%
- kinase still bound, per cent of control (MAPK15 (human)): 100%
- kinase still bound, per cent of control (RPS6KA4 KD2 (human)): 94%
- kinase still bound, per cent of control (STK3 (human)): 100%
- kinase still bound, per cent of control (MAPK12 (human)): 45%
- kinase still bound, per cent of control (EPHA7 (human)): 84%

Compound: CCN1CCN(Cc2ccc(Nc3ncc4c(n3)N(C)c3ccccc3C(=O)N4C)cc2C(F)(F)F)CC1
- kinase still bound, per cent of control (ZAP70 (human)): 90%
- kinase still bound, per cent of control (EPHA6 (human)): 90%
- kinase still bound, per cent of control (IRAK3 (human)): 69%
- kinase still bound, per cent of control (CDK19 (human)): 95%
- kinase still bound, per cent of control (MAPK6 (human)): 20%
- kinase still bound, per cent of control (MAP3K4 (human)): 81%
- kinase still bound, per cent of control (RPS6KA4 KD1 (human)): 100%
- kinase still bound, per cent of control (PTK6 (human)): 29%
- kinase still bound, per cent of control (HCK (human)): 24%
- kinase still bound, per cent of control (TTK (human)): 77%
- kinase still bound, per cent of control (TLK1 (human)): 74%
- kinase still bound, per cent of control (EPHB4 (human)): 93%
- kinase still bound, per cent of control (ACVR2A (human)): 56%
- kinase still bound, per cent of control (AAK1 (human)): 36%
- kinase still bound, per cent of control (EPHB2 (human)): 100%
- kinase still bound, per cent of control (EPHA3 (human)): 100%
- kinase still bound, per cent of control (PTK2B (human)): 96%
- kinase still bound, per cent of control (IKBKE (human)): 73%
- kinase still bound, per cent of control (ACVR1 (human)): 52%
- kinase still bound, per cent of control (MAPK13 (human)): 100%
- kinase still bound, per cent of control (CAMK2D (human)): 69%
- kinase still bound, per cent of control (PTK2 (human)): 57%
- kinase still bound, per cent of control (EPHA2 (human)): 83%
- kinase still bound, per cent of control (RIPK1 (human)): 24%
- kinase still bound, per cent of control (TGFBR2 (human)): 94%
- kinase still bound, per cent of control (RPS6KA2 KD2 (human)): 32%
- kinase still bound, per cent of control (CAMK2G (human)): 81%
- kinase still bound, per cent of control (PRKCE (human)): 81%
- kinase still bound, per cent of control (PAK1 (human)): 86%
- kinase still bound, per cent of control (DDR2 (human)): 50%
- kinase still bound, per cent of control (ULK1 (human)): 0%
- kinase still bound, per cent of control (MAP3K7 (human)): 17%
- kinase still bound, per cent of control (RIOK1 (human)): 33%
- kinase still bound, per cent of control (CSF1R (human)): 0.5%
- kinase still bound, per cent of control (MAP3K5 (human)): 100%
- kinase still bound, per cent of control (MAPK15 (human)): 100%
- kinase still bound, per cent of control (RPS6KA4 KD2 (human)): 100%
- kinase still bound, per cent of control (STK3 (human)): 8.1%
- kinase still bound, per cent of control (MAPK12 (human)): 97%
- kinase still bound, per cent of control (EPHA7 (human)): 100%
